{"source": "patent US12497465B2", "about": "“Combination of antibody-drug conjugate and tubulin inhibitor” (priority 2018, dated 2025)", "molecules": {"B1": {"name": "antibody-drug conjugate (3): anti-CDH6 antibody (SEQ ID NO: 11 residues 20-471, SEQ ID NO: 12 residues 21-233) conjugated to exatecan-derivative drug-linker via a thioether bond (conjugate, chains of the INN, looked up)", "VH": "EVQLVQSGAEVKKPGASVKVSCKASGYTFTRNFMHWVRQAPGQGLEWMGWIYPGDGETEYAQKFQGRVTITADTSTSTAYMELSSLRSEDTAVYYCARGVYGGFAGGYFDFWGQGTLVTVSS", "VL": "DIQMTQSPSSLSASVGDRVTITCKASQNIYKNLAWYQQKPGKAPKLLIYDANTLQTGVPSRFSGSGSGSDFTLTISSLQPEDFATYFCQQYYSGWAFGQGTKVEIK", "modifications": "exatecan-derivative drug-linker (deruxtecan)"}}, "key": {"[1]": {"test_system": "Human breast cancer cell line KPL-4", "test": "Antitumor study (1): subcutaneously transplanted KPL-4 cells in nude mice", "format": "in vivo", "conditions": "KPL-4 xenograft, BALB/c nude mice, last day of the study; ADC (1) […] iv Day 0; paclitaxel 15 mg/kg iv Day 0, 7; eribulin mesylate 0.8 mg/kg iv Day 0, 4", "description": "The calculation formula is as shown below.\nHuman breast cancer cell line KPL-4, which was obtained from Dr. Junichi Kurebayashi in Kawasaki Medical School [British Journal of Cancer, (1999) 79 (5/6)."}, "[2]": {"test_system": "Human breast cancer cell line JIMT-1", "test": "Antitumor study (2): subcutaneously transplanted JIMT-1 cells in nude mice", "format": "in vivo", "conditions": "JIMT-1 xenograft, ADC (1) 10 mg/kg iv Day 0, paclitaxel 15 mg/kg iv Day 0, 7, 14, eribulin mesylate 0.8 mg/kg iv Day 0, 3", "procedure": "(§1) Measurement and calculation formula: In all studies, the major axis and minor axis of tumors were measured twice a week with an electronic digital caliper (CD15-CX, Mitutoyo Corp.), and the tumor volume (mm^3) was calculated. The calculation formula is as shown below. Tumor volume(mm^3)=½×Major axis(mm)×[Minor axis (mm)]^2\n(§2) Paclitaxel was dissolved with cremophor and ethanol (1:1), diluted with physiological saline, and then intravenously administered to the tail vein in a fluid volume of 10 or 20 mL/kg. Eribulin mesylate was diluted with physiological saline, and intravenously administered to the tail vein in a fluid volume of 10 mL/kg.\nHuman breast cancer cell line JIMT-1, which was purchased from DSMZ (Deutsche Sammlung von Mikroorganismen und Zellkulturen GmbH), was suspended into physiological saline, subcutaneously transplanted at 5×10^6 cells into the right side of female nude mice, and the mice were randomly grouped 13 days after the transplantation (Day 0). […] Paclitaxel was intravenously administered to the tail vein at a dose of 15 mg/kg on Day 0, Day 7 and Day 14. Eribulin mesylate was intravenously administered to the tail vein at a dose of 0.8 mg/kg on Day 0 and Day 3. Single administration groups of each drug, a combined administration group, and a solvent administration group as a control group were set up."}, "[3]": {"test_system": "Human gastric cancer cell line NCI-N87", "test": "Antitumor study (3): subcutaneously transplanted NCI-N87 cells in nude mice", "format": "in vivo", "conditions": "NCI-N87 xenograft, ADC (1) 1 mg/kg iv Day 0, paclitaxel 15 mg/kg iv Day 0, 7, eribulin mesylate 0.4 mg/kg iv Day 0, 4", "procedure": "as §1, §2\nHuman gastric cancer cell line NCI-N87, which was purchased from ATCC (American Type Culture Collection), was suspended into physiological saline, subcutaneously transplanted at 1×10^7 cells into the right side of female nude mice, and the mice were randomly grouped 6 days after the transplantation (Day 0). […] Paclitaxel was intravenously administered to the tail vein at a dose of 15 mg/kg on Day 0 and Day 7. Eribulin mesylate was intravenously administered to the tail vein at a dose of 0.4 mg/kg on Day 0 and Day 4. Single administration groups of each drug, a combined administration group, and a solvent administration group as a control group were set up."}, "[4]": {"test_system": "Human breast cancer cell line JIMT-1", "conditions": "JIMT-1 xenograft, nude mice; ADC (2) 10 mg/kg iv Day 0, 7, 14; paclitaxel 15 mg/kg iv Day 0, 7", "procedure": "as §1\n(§3) Paclitaxel was dissolved with cremophor and ethanol (1:1), diluted with physiological saline, and then intravenously administered to the tail vein in a fluid volume of 10 or 20 mL/kg.\nHuman breast cancer cell line JIMT-1, which was purchased from DSMZ, was suspended into physiological saline, subcutaneously transplanted at 5×10^6 cells into the right side of female nude mice, and the mice were randomly grouped 10 days after the transplantation (Day 0). […] Paclitaxel was intravenously administered to the tail vein at a dose of 15 mg/kg on Day 0 and Day 7. Single administration groups of each drug, a combined administration group, and a solvent administration group as a control group were set up."}, "[5]": {"test_system": "Human gastric cancer cell line SNU-1", "test": "Antitumor study (5): subcutaneously transplanted SNU-1 cells in nude mice", "conditions": "SNU-1 xenograft, ADC (1) 10 mg/kg iv Day 0, paclitaxel 15 mg/kg iv Day 0, 7", "procedure": "as §1, §3\nHuman gastric cancer cell line SNU-1, which was purchased from ATCC, was suspended into Matrigel, subcutaneously transplanted at 1×10^7 cells into the right side of female nude mice, and the mice were randomly grouped 28 days after the transplantation (Day 0). […] Paclitaxel was intravenously administered to the tail vein at a dose of 15 mg/kg on Day 0 and Day 7. Single administration groups of each drug, a combined administration group, and a solvent administration group as a control group were set up."}, "[6]": {"test_system": "Human ovarian cancer cell line OV-90", "test": "Antitumor study (8): subcutaneously transplanted OV-90 cells in nude mice", "conditions": "OV-90 xenograft, Day 17, ADC (3) 10 mg/kg iv Day 0, paclitaxel 15 mg/kg iv Day 0, 7, 14", "procedure": "as §1, §3\nHuman ovarian cancer cell line OV-90, which was purchased from ATCC, was suspended into Matrigel, subcutaneously transplanted at 2.5×10^6 cells into the right side of female nude mice, and the mice were randomly grouped 15 days after the transplantation (Day 0). […] Paclitaxel was intravenously administered to the tail vein at a dose of 15 mg/kg on Day 0, Day 7, and Day 14. Single administration groups of each drug, a combined administration group, and a solvent administration group as a control group were set up."}, "[7]": {"test_system": "Human lung cancer cell line NCI-H441", "test": "Antitumor study (6): subcutaneously transplanted NCI-H441 cells in nude mice", "conditions": "NCI-H441 xenograft, ADC (1) 10 mg/kg iv Day 0, paclitaxel 15 mg/kg iv Day 0, 7", "procedure": "as §1, §3\nHuman lung cancer cell line NCI-H441, which was purchased from ATCC, was suspended into Matrigel, subcutaneously transplanted at 5×10^6 cells into the right side of female nude mice, and the mice were randomly grouped 7 days after the transplantation (Day 0). […] Paclitaxel was intravenously administered to the tail vein at a dose of 15 mg/kg on Day 0 and Day 7. Single administration groups of each drug, a combined administration group, and a solvent administration group as a control group were set up."}, "[8]": {"test_system": "Human breast cancer cell line MDA-MB-453", "test": "Antitumor study (4): subcutaneously transplanted MDA-MB-453 cells in nude mice", "conditions": "MDA-MB-453 xenograft, ADC (1) 0.5 mg/kg iv Day 0, paclitaxel 15 mg/kg iv Day 0, 7", "procedure": "as §3\nHuman breast cancer cell line MDA-MB-453, which was purchased from ATCC, was suspended into Matrigel basal membrane matrix (Matrigel), subcutaneously transplanted at 1×10^7 cells into the right side of female nude mice, and the mice were randomly grouped 7 days after the transplantation (Day 0). […] Paclitaxel was intravenously administered to the tail vein at a dose of 15 mg/kg on Day 0 and Day 7. Single administration groups of each drug, a combined administration group, and a solvent administration group as a control group were set up."}}, "note": "Where a name gives a salt, the structure may show the parent alone. Read-outs that look alike come from different tables or passages of the source."}
{"molecule": "C=C1C[C@@H]2CC[C@@]34C[C@H]5O[C@H]6[C@@H](O3)[C@H]3O[C@H](CC[C@@H]3O[C@H]6[C@H]5O4)CC(=O)C[C@@H]3[C@@H](OC)[C@@H](C[C@H](O)CN)O[C@H]3C[C@H]3O[C@@H](CC[C@@H]1O2)C[C@@H](C)C3=C", "note": "[eribulin mesylate]", "values": [{"measurement": "tumor growth inhibition (TGI)", "setting": "[1]", "result": 91, "unit": "%"}, {"measurement": "TGI", "setting": "[2]", "result": 73, "unit": "%"}, {"measurement": "TGI", "setting": "[3]", "result": 64, "unit": "%"}]}
{"molecule": "antibody-drug conjugate (2): anti-HER3 antibody (SEQ ID NO: 3 and 4) conjugated to exatecan-derivative drug-linker via a thioether bond", "values": [{"measurement": "TGI", "setting": "[4]", "result": 69, "unit": "%"}]}
{"molecule": "CC(=O)O[C@H]1C(=O)[C@@]2(C)[C@H]([C@H](OC(=O)c3ccccc3)[C@]3(O)C[C@H](OC(=O)[C@H](O)[C@@H](NC(=O)c4ccccc4)c4ccccc4)C(C)=C1C3(C)C)[C@]1(OC(C)=O)CO[C@@H]1C[C@@H]2O", "note": "[paclitaxel]", "values": [{"measurement": "tumor growth inhibition (TGI)", "setting": "[1]", "result": 48, "unit": "%"}, {"measurement": "TGI", "setting": "[2]", "result": 30, "unit": "%"}, {"measurement": "TGI", "setting": "[3]", "result": 50, "unit": "%"}, {"measurement": "TGI", "setting": "[4]", "result": 36, "unit": "%"}, {"measurement": "TGI", "setting": "[5]", "result": 58, "unit": "%"}, {"measurement": "TGI", "setting": "[6]", "result": 80, "unit": "%"}, {"measurement": "TGI", "setting": "[7]", "result": 55, "unit": "%"}, {"measurement": "TGI", "setting": "[8]", "result": 96, "unit": "%"}]}
{"molecule": "B1", "values": [{"measurement": "TGI", "setting": "[6]", "result": 97, "unit": "%"}]}
